For 12 compounds, Dmax and DC50 results are on record in patent US20250195513A1, “DEGRADATION OF IRAK4 BY CONJUGATION OF IRAK4 INHIBITORS WITH E3 LIGASE LIGAND AND METHODS OF USE” (BeiGene, Ltd., priority 2022, published 2025).

Read-outs that look alike come from different tables or passages of the source.

A word on the Dmax: it is the largest share of the target that was removed. As a reminder, the DC50 is the midpoint of the concentration-degradation curve.

For this test, the target named is T1, IRAK4 (Homo sapiens, UniProt Q9NWZ3).
T1 construct: endogenous in cells; host or cells: Karpas299
T1 sequence (Q9NWZ3 1-460): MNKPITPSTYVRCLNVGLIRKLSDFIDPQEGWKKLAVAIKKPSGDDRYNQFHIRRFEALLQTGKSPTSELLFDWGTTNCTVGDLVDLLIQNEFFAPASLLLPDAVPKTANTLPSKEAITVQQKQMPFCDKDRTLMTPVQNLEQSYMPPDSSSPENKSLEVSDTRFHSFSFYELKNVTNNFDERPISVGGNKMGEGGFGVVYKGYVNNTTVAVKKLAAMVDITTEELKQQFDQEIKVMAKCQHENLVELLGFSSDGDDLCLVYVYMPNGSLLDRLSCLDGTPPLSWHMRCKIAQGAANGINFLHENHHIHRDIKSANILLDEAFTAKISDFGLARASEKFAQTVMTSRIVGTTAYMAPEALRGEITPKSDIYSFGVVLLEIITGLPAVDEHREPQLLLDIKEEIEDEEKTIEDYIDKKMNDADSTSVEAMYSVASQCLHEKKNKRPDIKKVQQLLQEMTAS
Put plainly: IRAK4 Degradation Assay (Karpas299, HTRF/TR-FRET). The class given is cell-based. How it is done:
IRAK4 degradation was measured using a TR-FRET-based method (Degorce, François, et al. Current chemical genomics. 2009, 3: 22). Karpas299 maintained in RPMI 1640 medium (Thermo Scientific) supplemented with 20% fetal bovine serum (FBS, Thermo Scientific), 100 units/mL penicillin and 0.1 mg/mL streptomycin (Thermo Scientific) were seeded into 96-well plates at the density of 0.2 million cells per well and then treated with a series dilution of compounds. After 24 hours or 5 hours treatment, cells were pelleted via centrifugation and 40 μL lysis buffer (Cisbio) was added to each well after removal of the supernatant. Plates were then incubated at room temperature with shaking for 30 minutes. A total of 16 μL of cell lysates from each well of a 96-well plate was transferred to a 384-well white assay plate. IRAK4 level was quantitated using the HTRF kit as described by the manufacturer manual (Cisbio). FRET signals were measured using a PHERAstar FSX reader (BMG Labtech).
After treatment, add HTRF lysis buffer to each well; seal the plate and incubate 1 hour at room temperature on a plate shaker; Once the cells are lysed, 16 μL of cell lysate are transferred to a PE 384-well HTRF detection plate; 4 μL of pre-mixed HTRF antibodies are added to each well; Cover the plate with a plate sealer, spin 1000 rpm for 1 min, Incubate overnight at room temperature; Read on BMG PheraStar with HTRF protocol (337 nm-665 nm-620 nm).
The inhibition (degradation) percentage of the compound was calculated by the following equation: […]
The IC50 (DC50) value of a compound can be obtained by fitting the following equation
Wherein, X and Y are known values, and IC50, Hillslope, Top and Bottom are the parameters obtained by fitting with software. Y is the inhibition percentage (calculated from the equation), X is the concentration of the compound; IC50 is the concentration of the compound when the […] is reached. The smaller the IC50 value is, the stronger the inhibitory ability of the compound is. Vice versa, the higher the IC50 value is, the weaker the ability the inhibitory ability of the compound is; Hillslope represents the slope of the fitted curve, generally around 1 *; Bottom represents the minimum value of the curve obtained by data fitting, which is generally 0%±20%; Top represents the maximum value of the curve obtained by data fitting, which is generally 100%±20%. The experimental data were fitted by calculating and analyzing with Dotmatics data analysis software.
In general terms: TR-FRET usually uses a lanthanide donor and a delayed reading to cut background.

Where [1] appears, read: Karpas-299 cells, 24 h treatment, maximum percentage of degradation, read-out: IRAK4 in Karpas-299 (24 h) Dmax (%).
Setting [2] is: Karpas-299 cells, 24 h treatment, read-out: IRAK4 in Karpas-299 (24 h) DC50.
[3] abbreviates: Karpas-299 cells, 5 h treatment, maximum percentage of degradation, read-out: IRAK4 in Karpas-299 (5 h) Dmax (%).
Where [4] appears, read: Karpas-299 cells, 5 h treatment, read-out: IRAK4 in Karpas-299 (5 h) DC50.
Setting [5] is: Degradation (Karpas-299), comparison table, Linker Type A, read-out: Compound (Linker Type A) DC50.
Setting [6] is: Degradation (Karpas-299), comparison table, Linker Type A, read-out: Compound (Linker Type A) Dmax (%).

For `O=C1CC[C@H](c2c(F)cc(N3CC(C(=O)N4CCN([C@H]5CC[C@H](n6cc(NC(=O)c7coc(-c8ccnc(NCC9CC9)c8)n7)c(C(F)F)n6)CC5)CC4)C3)cc2F)C(=O)N1` [Example 25, 2-(2-((cyclopropylmethyl)amino)pyridin-4-yl)-N-(3-(difluoromethyl)-1-((1r,4r)-4-(4-(1-(4-((R)-2,6-dioxopiperidin-3-yl)-3,5-difluorophenyl)azetidine-3-carbonyl)piperazin-1-yl)cyclohexyl)-1H-pyrazol-4-yl)oxazole-4-carboxamide], the Dmax under setting [1] was found to be 99%. Also, the DC50 under setting [2] came out at 2.5 nM.
On the same counts, the results for `O=C1CC[C@H](c2c(F)cc(N3CC[C@@H](C(=O)N4CCN([C@H]5CC[C@H](n6cc(NC(=O)c7coc(-c8ccnc(NCC9CC9)c8)n7)c(C(F)F)n6)CC5)CC4)C3)cc2F)C(=O)N1` [Example 26, 2-(2-((cyclopropylmethyl)amino)pyridin-4-yl)-N-(3-(difluoromethyl)-1-((1R,4r)-4-(4-((R)-1-(4-((R)-2,6-dioxopiperidin-3-yl)-3,5-difluorophenyl)pyrrolidine-3-carbonyl)piperazin-1-yl)cyclohexyl)-1H-pyrazol-4-yl)oxazole-4-carboxamide] are 99% and 2.2 nM.
The matching figures for `O=C1CC[C@H](c2c(F)cc(N3CC(CN4CCN([C@H]5CC[C@H](n6cc(NC(=O)c7coc(-c8ccnc(NCC9CC9)c8)n7)c(C(F)F)n6)CC5)CC4)C3)cc2F)C(=O)N1` [Example 27, 2-(2-((cyclopropylmethyl)amino)pyridin-4-yl)-N-(3-(difluoromethyl)-1-((1r,4r)-4-(4-((1-(4-((R)-2,6-dioxopiperidin-3-yl)-3,5-difluorophenyl)azetidin-3-yl)methyl)piperazin-1-yl)cyclohexyl)-1H-pyrazol-4-yl)oxazole-4-carboxamide]: 99% and 2.8 nM.
On the same counts, the results for `NC(=O)c1nn(-c2ccc(N3CCN(C(=O)C4CN(c5ccc(N6CCC(=O)NC6=O)cc5)C4)CC3)nc2)cc1NC(=O)c1coc(-c2ccnc(NCC(F)(F)F)c2)n1` [Example 28, N-(3-carbamoyl-1-(6-(4-(1-(4-(2,4-dioxotetrahydropyrimidin-1(2H)-yl)phenyl)azetidine-3-carbonyl)piperazin-1-yl)pyridin-3-yl)-1H-pyrazol-4-yl)-2-(2-((2,2,2-trifluoroethyl)amino)pyridin-4-yl)oxazole-4-carboxamide] are 96% and 2.5 nM.
Regarding `O=C1CC[C@H](c2c(F)cc(N3CC(C(=O)N4CCN(c5ccc(-n6cc(NC(=O)c7coc(-c8ccnc(NCC(F)(F)F)c8)n7)c(C(F)F)n6)cn5)CC4)C3)cc2F)C(=O)N1` [Example 29], the Dmax is, setting by setting: under setting [3], 76%; under setting [1], 96%. For the same compound, the DC50 came out at 162 nM under setting [4] and 6.9 nM under setting [2].
The matching figures for `Cc1cc(-c2nc(C(=O)Nc3cn(-c4ccc(N5CCN(C(=O)[C@@H]6CCN(c7cc(F)c([C@H]8CCC(=O)NC8=O)c(F)c7)C6)CC5)nc4)nc3C(N)=O)co2)ccn1` [Example 30, N-(3-carbamoyl-1-(6-(4-((R)-1-(4-((R)-2,6-dioxopiperidin-3-yl)-3,5-difluorophenyl)pyrrolidine-3-carbonyl)piperazin-1-yl)pyridin-3-yl)-1H-pyrazol-4-yl)-2-(2-methylpyridin-4-yl)oxazole-4-carboxamide]: 76%, 95%, 5.3 nM and 3.2 nM.
The matching figures for `Cc1cc(-c2nc(C(=O)Nc3cn(-c4ccc(N5CCN(C(=O)C6CN(c7ccc(N8CCC(=O)NC8=O)cc7)C6)CC5)nc4)nc3C(N)=O)co2)ccn1` [Example 31, N-(3-carbamoyl-1-(6-(4-(1-(4-(2,4-dioxotetrahydropyrimidin-1(2H)-yl)phenyl)azetidine-3-carbonyl)piperazin-1-yl)pyridin-3-yl)-1H-pyrazol-4-yl)-2-(2-methylpyridin-4-yl)oxazole-4-carboxamide]: 89%, 96%, 8.2 nM and 5.8 nM.
The matching figures for `COc1cc2nn([C@H]3CC[C@H](NC(=O)C4CCN(c5ccc6c(c5)C(=O)N(C5CCC(=O)NC5=O)C6=O)CC4)CC3)cc2cc1NC(=O)c1cccc(C(F)(F)F)n1` (stereo partly shown) [Example 32, N-(2-((1r,4r)-4-(1-(2-(2,6-dioxopiperidin-3-yl)-1,3-dioxoisoindolin-5-yl)piperidine-4-carboxamido)cyclohexyl)-6-methoxy-2H-indazol-5-yl)-6-(trifluoromethyl)picolinamide]: 91%, 95%, 15 nM and 2.7 nM.
`COc1cc2nn(C3CCN(C(=O)[C@H]4CC[C@H](Oc5ccc(C6CCC(=O)NC6=O)cc5)CC4)CC3)cc2cc1NC(=O)c1cccc(C(F)(F)F)n1` (stereo partly shown) [Example 35, N-(2-(1-((1r,4r)-4-(4-(2,6-dioxopiperidin-3-yl)phenoxy)cyclohexane-1-carbonyl)piperidin-4-yl)-6-methoxy-2H-indazol-5-yl)-6-(trifluoromethyl)picolinamide]: the DC50 by setting is: under setting [5], greater than 10000 nM; under setting [2], greater than 10000 nM. For the same compound, the maximal degradation (Dmax) reads like this: under setting [6], 10%; under setting [1], 10%.
As to `COc1cc2nn([C@H]3CC[C@H](CN4CCN(C(=O)[C@@H]5CCN(c6ccc(N7CCC(=O)NC7=O)cc6)C5)CC4)CC3)cc2cc1NC(=O)c1cccc(C(F)(F)F)n1` [Example 36, N-(2-((1R,4r)-4-((4-((R)-1-(4-(2,4-dioxotetrahydropyrimidin-1(2H)-yl)phenyl)pyrrolidine-3-carbonyl)piperazin-1-yl)methyl)cyclohexyl)-6-methoxy-2H-indazol-5-yl)-6-(trifluoromethyl)picolinamide], the DC50 under setting [5] amounted to 15 nM and the DC50 under setting [2] turned out to be 15 nM. In addition, the Dmax is, setting by setting: under setting [6], 89%; under setting [1], 89%.
For the compound `CC(C)(O)c1cc2nn([C@H]3CC[C@H](N4CCN(C(=O)[C@@H]5CCN(c6cc(F)c([C@H]7CCC(=O)NC7=O)c(F)c6)C5)CC4)CC3)cc2cc1NC(=O)c1cccc(C(F)(F)F)n1` [Example 39, N-(2-((1R,4r)-4-(4-((R)-1-(4-((R)-2,6-dioxopiperidin-3-yl)-3,5-difluorophenyl)pyrrolidine-3-carbonyl)piperazin-1-yl)cyclohexyl)-6-(2-hydroxypropan-2-yl)-2H-indazol-5-yl)-6-(trifluoromethyl)picolinamide], the Dmax was found to be 96% under setting [3] and 99% under setting [1]. In addition, the DC50 is 4.6 nM under setting [4] and 0.8 nM under setting [2].
The matching figures for `CC(C)(O)c1cc2nn([C@H]3CC[C@H](N4CCN(C(=O)C5CN(c6ccc(N7CCC(=O)NC7=O)cc6)C5)CC4)CC3)cc2cc1NC(=O)c1cccc(C(F)(F)F)n1` [Example 40, N-(2-((1r,4r)-4-(4-(1-(4-(2,4-dioxotetrahydropyrimidin-1(2H)-yl)phenyl)azetidine-3-carbonyl)piperazin-1-yl)cyclohexyl)-6-(2-hydroxypropan-2-yl)-2H-indazol-5-yl)-6-(trifluoromethyl)picolinamide]: 89%, 99%, 23 nM and 0.9 nM.
